Experimental findings from patent US20150011751A1, “NOVEL TRIAZINE DERIVATIVE” (CARNA BIOSCIENCES, INC., priority 2012, published 2015) are described below.

The target of the assay is Dephosphorylated BTK (Homo sapiens, UniProt Q06187). In words: Test of activity inhibition against dephosphorylated BTK (mobility shift assay).
Dephosphorylated BTK, sequence (Q06187 whole entry): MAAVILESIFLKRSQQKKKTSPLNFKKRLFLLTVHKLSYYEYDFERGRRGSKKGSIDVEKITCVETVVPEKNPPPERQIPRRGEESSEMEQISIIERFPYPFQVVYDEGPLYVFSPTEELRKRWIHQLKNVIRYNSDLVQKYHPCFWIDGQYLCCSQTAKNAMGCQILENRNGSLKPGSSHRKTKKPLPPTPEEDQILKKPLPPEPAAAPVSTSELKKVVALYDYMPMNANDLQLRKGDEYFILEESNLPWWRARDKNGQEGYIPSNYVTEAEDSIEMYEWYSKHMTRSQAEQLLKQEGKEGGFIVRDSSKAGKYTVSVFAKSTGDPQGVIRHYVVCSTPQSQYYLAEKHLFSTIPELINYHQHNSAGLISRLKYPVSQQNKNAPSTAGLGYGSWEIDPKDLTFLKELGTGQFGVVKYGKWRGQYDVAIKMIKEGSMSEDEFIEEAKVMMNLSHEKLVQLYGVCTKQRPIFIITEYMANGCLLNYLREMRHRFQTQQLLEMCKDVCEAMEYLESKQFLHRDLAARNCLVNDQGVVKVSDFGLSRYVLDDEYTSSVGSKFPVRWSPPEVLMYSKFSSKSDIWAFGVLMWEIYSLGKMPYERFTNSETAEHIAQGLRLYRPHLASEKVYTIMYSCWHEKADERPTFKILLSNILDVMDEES

As for `CN(C)CCCOc1ccc(Nc2nc(N)nc(-c3cccc(N4CCc5cc(C6CC6)cc(F)c5C4=O)c3CO)n2)cc1` [Example 183, 2-{3-[4-Amino-6-({4-[3-(dimethylamino)pro-poxy]phenyl}amino)-1,3,5-triazin-2-yl]-2-(hydroxymethyl)phenyl}-6-cyclopropyl-8-fluoro-3,4-dihydro-isoquinolin-1(2H)-one], the IC50 is 2.3 nM.

Take `COCCOc1ccc(Nc2nc(N)nc(-c3cccc(NC(=O)c4cc5c(s4)CCCC5)c3CO)n2)cc1` [Example 134, N-[3-(4-Amino-6-{[4-(2-methoxyethoxy)phenyl]amino}-1,3,5-triazin-2-yl)-2-(hydroxymeth-yl)phenyl]-4,5,6,7-tetra-hydrobenzo[b]thio-phene-2-carboxamide]: the IC50 was 0.9 nM.

For the molecule `CC(C)n1cc(Nc2nc(N)nc(-c3cccc(N4CCc5cc(C6CC6)cc(F)c5C4=O)c3CO)n2)cn1` [Example 222, 2-(3-{4-Amino-6-[(1-iso-propyl-1H-pyrazol-4-yl)amino]-1,3,5-tria-zin-2-yl}-2-(hydroxymeth-yl)phenyl)-6-cyclo-propyl-8-fluoro-3,4-di-hydroisoquinolin-1(2H)-one], the IC50 was determined as 0.4 nM.

For the molecule `CC(C)(CO)c1ccc(C(=O)Nc2cccc(-c3nc(N)nc(Nc4ccc(N5CCOCC5)cc4)n3)c2CO)cc1` [Example 201, N-(3-{4-Amino-6-[(4-mor-pholinophenyl)amino]-1,3,5-triazin-2-yl}-2-(hydroxymethyl)phe-nyl)-4-(1-hydroxy-2-meth-ylpropan-2-yl)benz-amide], the IC50 was determined as 3.4 nM.

Consider `COc1c(NC(=O)c2ccc(C(C)(C)C)cc2)cccc1-c1nc(N)nc(Nc2ccc(N3CCOCC3)cc2)n1` [Example 96, N-(3-{4-Amino-6-[(4-morpholinophenyl)amino]-1,3,5-triazin-2-yl}-2-methoxyphenyl)-4-(tert-butyl)benzamide], for which the IC50 was 7.7 nM.

On to `CC(C)(C)c1ccc(C(=O)Nc2cccc(-c3nc(N)nc(Nc4cccc(O)c4)n3)c2CO)cc1` [Example 121, N-(3-{4-Amino-6-[(3-hy-droxyphenyl)amino]-1,3,5-triazin-2-yl}-2-(hydroxymethyl)phenyl)-4-(tert-butyl)benza-mide], for which the IC50 was 1.2 nM.

As to `CC(C)(C)c1ccc(C(=O)Nc2cccc(-c3nc(N)nc(Nc4ccc(N5CCNC(=O)C5)cc4)n3)c2CO)cc1` [Example 114, N-[3-(4-Amino-6-{[4-(3-oxopiperazin-1-yl)phe-nyl]amino}-1,3,5-tri-azin-2-yl)-2-(hydroxy-methyl)phenyl]-4-(tert-butyl)benzamide], the IC50 stood at 1 nM.

In the case of `CC(C)(C)c1ccc(C(=O)Nc2cccc(-c3ncnc(Nc4ccc(C(=O)N5CCOCC5)cc4)n3)c2CO)cc1` [Example 115, 4-(tert-Butyl)-N-[2-(hy-droxymethyl)-3-(4-{[4-(morpholine-4-carbo-nyl)phenyl]amino}-1,3,5-triazin-2-yl)phe-nyl]benzamide], the IC50 was 9.4 nM.

As for `CC(C)(C)c1ccc(C(=O)Nc2cccc(-c3nc(N)nc(Nc4cn[nH]c4)n3)c2CO)cc1` [Example 165, N-(3-{4-[(1H-Pyrazol-4-yl)amino]-6-amino-1,3,5-triazin-2-yl}-2-(hydroxymethyl)phenyl)-4-(tert-butyl)benzamide], the IC50 is 0.7 nM.

Take `CC(C)(C)c1ccc(C(=O)Nc2cccc(-c3nc(N)nc(Nc4ccc5[nH]c(=O)[nH]c5c4)n3)c2CO)cc1` [Example 141, N-(3-{4-Amino-6-[(2-oxo-2,3-dihydro-1H-ben-zo[d]imidazol-5-yl)ami-no]-1,3,5-triazin-2-yl}-2-(hydroxymethyl)phenyl)-4-(tert-butyl) benzamide]: the IC50 amounted to 1.2 nM.

With `CC(=O)OCc1c(NC(=O)c2ccc(C(C)(C)C)cc2)cccc1-c1nc(N)nc(Nc2ccc(O)cc2)n1` [Example 110, 2-{4-Amino-6-[(4-hydroxy-phenyl)amino]-1,3,5-triazin-2-yl}-6-[4-(tert-butyl)benzamido] benzyl acetate], the IC50 came out at 17.9 nM.

For `CC(C)n1ccc(Nc2nc(N)nc(-c3cccc(N4CCc5cc(C6CC6)cc(F)c5C4=O)c3CO)n2)c1` [Example 229, 2-(3-{4-Amino-6-[(1-iso-propyl-1H-pyrrol-3-yl)amino]-1,3,5-triazin-2-yl}-2-(hydroxymeth-yl)phenyl)-6-cyclopro-pyl-8-fluoro-3,4-di-hydroisoquinolin-1(2H)-one], the IC50 was determined as 2.5 nM.

For the molecule `CC(C)(C)c1ccc(C(=O)Nc2cccc(-c3nc(N)nc(Nc4ccc5[nH]c(C(F)(F)F)nc5c4)n3)c2CO)cc1` [Example 187, N-[3-(4-Amino-6-{[2-(tri-fluoromethyl)-1H-benzo[d]imidazol-5-yl]amino}-1,3,5-triazin-2-yl)-2-(hydroxymeth-yl)phenyl]-4-(tert-butyl)benzamide], the IC50 stood at 5.6 nM.

As to `Nc1nc(Nc2ccsc2)nc(-c2cccc(N3CCc4cc(C5CC5)cc(F)c4C3=O)c2CO)n1` [Example 228, 2-{3-[4-Amino-6-(thio-phen-3-ylamino)-1,3,5-triazin-2-yl]-2-(hy-droxymethyl)phenyl}-6-cyclopropyl-8-fluoro-3,4-dihydroisoquinolin-1(2H)-one], the 50% inhibitory concentration (IC50) worked out at 2.4 nM.

In the case of `Cc1cc(Nc2nc(N)nc(-c3cccc(NC(=O)c4ccc(C(C)(C)C)cc4)c3CO)n2)cc(C)c1O` [Example 123, N-(3-{4-Amino-6-[(4-hy-droxy-3,5-dimethyl-phenyl)amino]-1,3,5-tri-azin-2-yl}-2-(hydroxy-methyl)phenyl)-4-(tert-butyl)benzamide], the IC50 stood at 1.4 nM.

Take `COCCOc1ccc(Nc2nc(N)nc(-c3cccc(NC(=O)c4ccc(C(C)(C)C)cc4)c3CO)n2)cc1` [Example 74, N-[3-(4-Amino-6-{[4-(2-methoxyethoxy)phenyl]amino}-1,3,5-triazin-2-yl)-2-(hydroxymeth-yl)phenyl]-4-(tert-butyl) benzamide]: the IC50 stood at 0.7 nM.

Take `Nc1nc(Nc2cnn(CCO)c2)nc(-c2cccc(N3CCc4cc(C5CC5)cc(F)c4C3=O)c2CO)n1` [Example 179, 2-[3-(4-Amino-6-{[1-(2-hydroxyethyl)-1H-py-razol-4-yl]amino}-1,3,5-triazin-2-yl)-2-(hy-droxymethyl)phenyl]-6-cyclopropyl-8-fluoro-3,4-dihydroisoquino-lin-1(1H)-one]: the IC50 was determined as 0.9 nM.

On to `CC(C)(C)c1ccc(C(=O)Nc2cccc(-c3nc(N)nc(Nc4ccc5nc[nH]c5c4)n3)c2CO)cc1` [Example 144, N-(3-{4-[(1H-Benzo[d]imidazol-6-yl)amino]-6-amino-1,3,5-triazin-2-yl}-2-(hydroxymeth-yl)phenyl)-4-(tert-butyl)benzamide], for which the IC50 stood at 1.9 nM.

On to `Nc1nc(Nc2ccn(C3CC3)c2)nc(-c2cccc(N3CCc4cc(C5CC5)cc(F)c4C3=O)c2CO)n1` [Example 277, 2-(3-{4-Amino-6-[(1-cyclo-propyl-1H-pyrrol-3-yl)amino]-1,3,5-tri-azin-2-yl}-2-(hydroxy-methyl)phenyl)-6-cyclo-propyl-8-fluoro-3,4-dihydroisoquinolin-1(2H)-one], for which the IC50 came out at 3.3 nM.

In the case of `Nc1nc(Nc2ccc(N3CCOCC3)nc2)nc(-c2cccc(N3CCc4cc(C5CC5)cc(F)c4C3=O)c2CO)n1` [Example 46, 2-(3-{4-Amino-6-[(6-morpho-linopyridin-3-yl)amino]-1,3,5-triazin-2-yl}-2-(hydroxymeth-yl)phenyl)-6-cyclopro-pyl-8-fluoro-3,4-dihy-droisoquinolin-1(2H)-one], the IC50 came to 5.2 nM.

In general, IC50 refers to the concentration at which inhibition is half-maximal.
